Data reported in patent US20240024287A1, “APPLICATION OF ANLE138B IN DRUG FOR IMPROVING DIET-INDUCED INSULIN RESISTANCE” (The First Affiliated Hospital of Shantou University Medical …, priority 2022, published 2024).
Where “and” joins values, the source holds several entries; their conditions need not be identical. Equal entries are not always repeated. Marks after values point to notes of the source that are not given here.

Assays:
[1] = system: high-fat-induced rat insulin resistance model; experiment: High-fat-induced rat insulin resistance model, preventive administration; format: in vivo, C57BL/6J rats; settings: high-fat diet, preventive 5 mg/kg
Source text: (§1) 8-week-old male […] were selected as experimental animals. The rats were adaptively fed for 1 week after purchase, and then weighed for the fasting body weight. The healthy rats weighing 22-24 g were selected and randomly divided into groups according to the experimental flow design. (1) The rats were fed with normal feed and high-fructose feed for 8 weeks; (2) the rats were fed with high-fat feed for 12 weeks; (3) the rats were fed with high-fat feed for 8 weeks as a preventive experiment. Fasting body weights were measured and recorded regularly every week, and the rats were guaranteed to have free access to water and food during feeding. The food intake, water intake, and free movement of the model rats were continuously observed, and the rats with stunted growth, rough hair, and rickety posture after eating high-fructose and high-fat diets were screened out. In the experiment later, the rats were fed with normal feed or high-fructose/high-fat feed during the 2 weeks of intraperitoneal injection to ensure the consistency before and after administration.
(§2) A total energy-to-mass ratio was 4.73 kcal/g. The feed was provided by Beijing Huafukang Biotechnology Co., Ltd.
(§3) Anle138b solutions: The drug doses required for 1 week of intervention for each group of rats were calculated, Anle138b drug concentrations of 1 mg/kg (0.01%), 3 mg/kg (0.03%) and 5 mg/kg (0.05%) were prepared, Anle138b powder was weighed and then added in 10% DMSO, 40% PEG300, 5% Tween-80 and 45% saline in sequence, each mixture was evenly blended by vortex into a clear solution, and each Anle138b solution was separately bottled according to the daily dose and stored in a refrigerator at 4° C.
(§4) The 8-week-old adult rats were modeled by changing the diets after 1 week of adaptive feeding. Blood was collected from the right orbital venous plexus with a glass tube at 8 weeks and 12 weeks after model establishment and after fasting (>12 h), and blood glucose levels were measured with a blood glucose tester (Sannuo GA-3); and the insulin resistance mode was judged by the subsequent determination of metabolic indexes, such as glucose tolerance test by intraperitoneal injection, fasting serum insulin (enzyme-linked immunosorbent assay, Raybiotech), serum triglyceride (GPO-PAP single-reagent microplate method, Nanjing Jiancheng) and cholesterol ([…] single-reagent microplate method, Nanjing Jiancheng).
Rats fed with high-fat diet for 5 weeks were randomly divided into high-fat feeding control group (n=6) and drug intervention group with Anle138b 5 mg/kg, and the rats were administered for 3 weeks continuously, once every two days.

[2] = system: high-fat-induced rat insulin resistance models; experiment: High-fat-induced rat insulin resistance model, therapeutic administration; format: in vivo
Source text: as §1, §2, §3, §4
The rat IR models were randomly divided into two groups, the rats were administrated with Anle138b 3 mg/kg (n=6, 0.03%) and 5 mg/kg (n=6, 0.05%) for 2 weeks continuously, once a day.
After the models were determined to be successful, the average value of food intake of each rat in the first two days was taken as its own food intake base. After the drug intervention, the daily food intake and body weight were measured and compared with their own bases for comparison of the standardized food intake and body weight of each rat. […]

[3] = system: high-fructose-induced rat insulin resistance models; experiment: High-fructose-induced rat insulin resistance model, therapeutic administration; format: in vivo
Source text: as §1, §3
L-THP solution: The drug dose required for 1 week of intervention for each group of rats was calculated, L-THP drug concentrations of 3 mg/kg (0.03%) was prepared, light yellow L-THP powder was weighed and then added in 10% DMSO, 40% PEG300, 5% Tween-80 and 45% saline in sequence, each mixture was evenly blended by vortex into a clear solution, and each Anle138b solution was separately bottled according to the daily dosage and stored in a refrigerator at 4° C.
as §4
The rats were fed with 60% high-fructose diet for 8 weeks to establish insulin resistance models, and the rats fed with normal diet provided by the animal room of Shantou University Medical College were used as controls. After fasting, orbital blood was collected, and fasting blood glucose, serum insulin, glucose tolerance were determined to judge whether the modeling was successful. According to an insulin resistance index (HOMA-IR) as the core judgment index, the successfully modeled rats were enrolled by screening the IR index of >3 and randomly divided into groups to explore the influence of different concentrations of Anle138b on the rat insulin resistance models. The concentration gradients for different groups were 0 mg/kg (injection solvent, namely the model control group), 1 mg/kg, 3 mg/kg and 5 mg/kg clear Anle138b solution, as well as the L-THP 3 mg/kg positive drug control group. The rats were administrated by intraperitoneal injection for 2 weeks continuously, once a day.
The insulin resistance value was calculated in combination with the method for calculating the insulin resistance index (HOMA-IR) in the homeostasis model assessment method. […]

[4] = system: high-fat-induced rat insulin resistance models; experiment: Anle138b treatment versus paired-feed (PF) group in high-fat rat insulin resistance models; format: in vivo; settings: high-fat model, 5 mg/kg, compared with PF group
Protocol: The rats fed with high-fat diet for 8 weeks were divided into paired-feed group (n=7) (the food intake was the same as that of high-fat Anle138b 5 mg/kg/d) and control group continuously fed with high-fat diet.
Pair-feed (PF) group: the pair-feed group was set according to the daily food intake in the high-fat group after intervention with Anle138b 5 mg/kg, the rats were given the same amount of high-fat diet every day, and the changes in the body weight and the metabolic indexes were measured.

normal rats = experiment: Normal rats given Anle138b (normal drug / drug control group); format: in vivo; settings: 3 mg/kg i.p., 2 weeks
Source text: as §1, §3, §4
(1) The normal rats were randomly divided into two groups: blank control group (n=6) and drug control group (n=7); the rats in the normal control group were intraperitoneally injected with a similar volume of solvent and Anle138b (3 mg/kg, 0.03%) according to the body weight for 2 weeks.

[5] = 3 mg/kg/d, 2 weeks, 3 mg/kg/day
[6] = 5 mg/kg/d, 2 weeks, 5 mg/kg/day
[7] = 2 weeks, with increase of drug concentration
[8] = 1 mg/kg i.p. once a day, 2 weeks
[9] = 3 mg/kg i.p. once a day, 2 weeks
[10] = 5 mg/kg i.p. once a day, 2 weeks

Brc1cccc(-c2cc(-c3ccc4c(c3)OCO4)[nH]n2)c1 [Anle138b]
Adipose tissue pathomorphism, HE staining [1]: relieved the structural disorder of the adipose tissue
Daily feeding efficiency [1]: −0.03518±0.02726
Fasting Blood Glucose [1]: 6.313 ± 0.63 mmol/L
Fasting Insulin [1]: 22.09±6.49 μIU/mL
Fat weight index [1]: 0.01195±0.003
Glucose tolerance test area under curve (AUC) [1]: 1,269±74 min*mmol/L
Insulin Resistance Index [1]: 6.880±2.73 μIU/mL*mmol/L
Liver weight index [1]: 0.03763±0.001
Pancreas pathomorphism, HE staining [1]: significantly inhibit the steatosis of pancreatic acinar cells
Total Cholesterol [1]: 3.383 ± 0.21 mmol/L
Triglyceride [1]: 0.4687 ± 0.05 mmol/L
Body weight at end point of prevention experiment ([1]; 3 weeks, once every two days): 25.8 ± 0.67 g
Food intake ([1]; 3 weeks, once every two days): 1.805±0.19 g/rat
Fat weight index ([2]; 3 mg/kg): 0.01317±0.004212
Feeding efficiency (daily body weight change/energy consumption) ([2]; 3 mg/kg): −0.007788±0.01949 g/calories/rat/day
Glucose tolerance test area under curve (AUC) ([2]; 3 mg/kg): 1,203±155.6 min*mmol/L
Liver weight index ([2]; 3 mg/kg): 0.04475±0.003
Liver pathomorphism, HE staining ([2]; 3 mg/kg and 5 mg/kg): the hepatic steatosis was significantly alleviated
Pancreas pathomorphism, HE staining ([2]; 3 mg/kg and 5 mg/kg, as the dose increases): the acinar steatosis was significantly alleviated
Average daily food intake ([2]; 3 mg/kg once a day, 2 weeks): 1.946 ± 0.4777 g/day
Body weight after intervention ([2]; 3 mg/kg once a day, 2 weeks): 28.97 ± 1.657 g
Fasting Blood Glucose [2, 5]: 5.283 ± 0.74 mmol/L
Fasting Insulin [2, 5]: 55.24±28.94 μIU/mL
Insulin Resistance Index [2, 5]: 11.6±5.044 μIU/mL*mmol/L and 11.6 ± 5.04 μIU/mL*mmol/L
Triglyceride [2, 5]: 0.5138 ± 0.06 mmol/L
Fat weight index ([2]; 5 mg/kg): decreased
Feeding efficiency (daily body weight change/energy consumption) ([2]; 5 mg/kg): −0.01528±0.01287 g/calories/rat/day
Glucose tolerance test area under curve (AUC) ([2]; 5 mg/kg): 1,059±153.2 min*mmol/L
Liver weight index ([2]; 5 mg/kg): 0.04344±0.0026
Body weight after intervention ([2]; 5 mg/kg once a day, 2 weeks): 28.9 ± 1.685 g
Average daily food intake ([2]; 5 mg/kg once a day, 2 weeks, P<0.001): significantly lower than that of the model group
Fasting Blood Glucose [2, 6]: 4.867 ± 0.36 mmol/L
Fasting Insulin [2, 6]: 36.27±16.53 μIU/mL
Insulin Resistance Index [2, 6]: 8.446±3.617 μIU/mL*mmol/L and 8.446 ± 3.62 μIU/mL*mmol/L
Triglyceride [2, 6]: 0.5164 ± 0.06 mmol/L
Epididymal adipose tissue pathomorphism, HE staining [2, 7]: the adipocytes were reduced in sizes and arranged regularly
Skeletal muscle pathomorphism, HE staining ([2]; drug intervention 2 weeks): the intermuscular steatosis was relieved
Body Weight After Administration [3, 8]: 25.58 ± 1.555* * g
Fasting Blood Glucose [3, 8]: 5.100 ± 0.65 # mmol/L
Fasting Insulin [3, 8]: 48.97 ± 1.38 μIU/mL
HOMA-IR [3, 8]: 11.3 ± 1.78 μIU/mL*mmol/L
Glucose tolerance test area under curve (AUC) ([3]; 1 mg/kg i.p., 2 weeks): 1,307±46.38 min*mmol/L
Right epididymal fat weight index (fat weight/fasting body weight) ([3]; 1 mg/kg i.p., 2 weeks): 0.008918±0.0003788
Body Weight After Administration [3, 9]: 25.51 ± 0.8009 g
Fasting Blood Glucose [3, 9]: 5.300 ± 0.89 mmol/L
Fasting Insulin [3, 9]: 21.46 ± 10.36 # μIU/mL
HOMA-IR [3, 9]: 5.438 ± +2.13 # μIU/mL*mmol/L
Right epididymal fat weight index (fat weight/fasting body weight) ([3]; 3 mg/kg i.p., 2 weeks): 0.007657±0.002366
Body Weight After Administration [3, 10]: 24.25 ± +2.652 g
Fasting Blood Glucose [3, 10]: 4.675 ± 0.95 # mmol/L
Fasting Insulin [3, 10]: 25.74 ± 12.24 # μIU/mL
HOMA-IR [3, 10]: 5.827 ± 3.78 # μIU/mL*mmol/L
Glucose tolerance test area under curve (AUC) ([3]; 5 mg/kg i.p., 2 weeks): 1,261±103.2 min*mmol/L
Right epididymal fat weight index (fat weight/fasting body weight) ([3]; 5 mg/kg i.p., 2 weeks): 0.007971±0.00142
Epididymal adipose tissue pathomorphism, HE staining [3, 7]: the adipocytes were reduced in sizes and arranged regularly
Liver pathomorphism, HE staining ([3]; different concentrations, dose-dependent): the hepatic steatosis was significantly alleviated
Average body weight [4]: 28.23 ± 0.66 g
Fasting Blood Glucose [4]: 4.87 ± 0.36 mmol/L
Feeding efficiency [4]: −0.015±0.013
Triglyceride [4]: 0.52 ± 0.06 mmol/L
Body Weight After Administration (normal rats): 25.65 ± 0.7842 g
Fasting Blood Glucose (normal rats): 3.650 ± 0.33 mmol/L
Fasting Insulin (normal rats; 3 mg/kg): 15.08±13.14 μIU/mL
HOMA-IR (normal rats; 3 mg/kg): 1.1689±1.153 μIU/mL*mmol/L and 1.1689 ± 1.15 μIU/mL*mmol/L

COc1cc2c(cc1OC)[C@@H]1Cc3ccc(OC)c(OC)c3CN1CC2 [L-THP, reference compound]
Body Weight After Administration [3, 9]: 24.24 ± 1.255 g
Fasting Blood Glucose [3, 9]: 4.967 ± 0.39 # mmol/L
Fasting Insulin [3, 9]: 24.76 ± 9.70 # # μIU/mL
HOMA-IR [3, 9]: 6.029 ± 3.33 # μIU/mL*mmol/L
Right epididymal fat weight index (fat weight/fasting body weight) ([3]; 3 mg/kg i.p., 2 weeks): 0.00751±0.002279
